Reference: PMC9648375, “Identification of the first-in-class dual inhibitors of human DNA topoisomerase IIα and indoleamine-2,3-dioxygenase 1 (IDO 1) with strong anticancer properties” (Journal of Enzyme Inhibition and Medicinal Chemistry, 2022)
Values after ≈ are worked out from the molar mass of the structure shown. Like-named read-outs stand apart in the source and are kept apart here.

Key:
[1] = Solubility in culture media and buffers; type: physicochemical
[2] = system: SCC-25 (squamous cell carcinoma of the tongue); test: MTT assay; type: cell-based; conditions: Homo sapiens, SCC-25, MTT, read-out: IC50, cytotoxicity
Experimental: (§1) Therefore, the whole set of compounds were tested by using MTT assay in order to check their overall cytotoxic effect. The growth of cells was monitored after 24 and 48 h of incubation with the increased concentrations (1–100 µg/ml) of the thiosemicarbazide derivatives. […] This confirms that the compounds tested combine different mechanisms of anticancer activity, and DNA topoisomerase II inhibition is only one of them.
(§2) Cytotoxicity of the synthesised compounds were examined against a panel of the cancer cell lines, MCF-7 (estrogen-dependent human breast cancer cells), MDA-MB-231 (oestrogen-independent human breast cancer cells), SCC- 25 (squamous cell carcinoma of the tongue), FaDu (squamous cell carcinoma of the pharynx), A- 549 (human lung carcinoma), AGS (human gastric adenocarcinoma), LS-180, HT-29 (colon cancer cell lines), T98G (glioblastoma cells), A375 (melanoma cells). Human embryonic kidney (HEK-293) cells and human normal skin fibroblasts (CRL-2072) were used as reference cell lines. The investigated cell lines were obtained from American Type Culture Collection (ATCC; Manassas, VA, USA). A375, MCF-7, MDA-MB-231, T98G cells were cultured in Dulbecco’s Modified Eagle’s Medium (DMEM) (Sigma Aldrich, St. Louis, MO, USA) supplemented with 10% heat inactivated foetal bovine serum (FBS), penicillin (100 U/mL), and streptomycin (100 μg/mL). SCC-25 cells were cultured in 1:1 mixture of Dulbecco’s modified Eagle’s medium and Ham’s F12 Medium (Sigma Aldrich, St. Louis, MO, USA) supplemented with 400 ng/ml hydrocortisone, 10% FBS, penicillin (100 U/mL), and streptomycin (100 μg/mL). A549 and AGS cells were maintained in F-12K Medium (Sigma Aldrich, St. Louis, MO, USA). LS-180 and FaDu cells were cultured in Eagle’s Minimum Essential Medium. HT-29 cells were maintained in McCoy’s 5 A Medium (Sigma Aldrich, St. Louis, MO, USA) supplemented with 10%FBS, penicillin (100 U/mL), and streptomycin (100 μg/mL). All the cells were maintained at 37 °C in a humidified atmosphere of 5% CO2.
(§3) The synthesised compounds were dissolved in DMSO in order to obtain stock solutions. At the day of the experiment, the suspension of cells (1 × 10^5 cells/mL) in the respective medium was applied to a 96-well plate at 100 μL per well. […] The control cells were cultured only with a medium containing 2% FBS. Cytotoxicity of DMSO was also checked at concentrations present in respective dilutions of stock solution. After 24 h (or 48 h) of incubation, 15 μL of MTT working solution (5 mg/mL in PBS) was added to each well. The plate was incubated for 3 h. Subsequently, 100 μL of 10% SDS solution was added to each well. Cells were incubated overnight at 37 °C to dissolve the precipitated formazan crystals. The concentration of the dissolved formazan was evaluated by measuring the absorbance at λ = 570 nm, using a microplate reader (Epoch, BioTek Instruments, Inc., Winooski, VT, USA). At least two independent experiments were performed in triplicates. The results of the MTT assay were expressed as mean ± SD. […] IC50 values of the investigated derivatives and standards were calculated using the IC50 calculator.[23]

[3] = system: HT-29 (colon cancer cell line); test: MTT assay; type: cell-based; conditions: Homo sapiens, HT-29, MTT, read-out: IC50, cytotoxicity
Experimental: as §1, §2, §3

[4] = system: MCF-7 (estrogen-dependent human breast cancer cells); test: MTT assay; type: cell-based; conditions: MCF7, MCF-7, MTT, read-out: IC50, cytotoxicity
Experimental: as §1, §2, §3

[5] = system: A375 (melanoma cells); test: MTT assay; type: cell-based; conditions: Homo sapiens, read-out: IC50, cytotoxicity
Experimental: as §1, §2, §3

[6] = MTT assay; type: cell-based; conditions: human, HEK-293 cells (normal reference cell line), HEK-293 (normal cells), read-out: IC50, cytotoxicity
Experimental: as §1, §2, §3

[7] = system: MDA-MB-231 (estrogen-independent human breast cancer cells); test: MTT assay; type: cell-based; conditions: MDA-MB-231, MTT, read-out: IC50, cytotoxicity
Experimental: as §1, §2, §3

[8] = system: LS180 (colon cancer cell line); test: MTT assay; type: cell-based; conditions: Homo sapiens, read-out: IC50, cytotoxicity
Experimental: as §1, §2, §3

[9] = system: A549 (human lung carcinoma); test: MTT assay; type: cell-based; conditions: read-out: IC50, cytotoxicity
Experimental: as §1, §2, §3

[10] = system: T98G (glioblastoma cells); test: MTT assay; type: cell-based; conditions: Homo sapiens, read-out: IC50, cytotoxicity
Experimental: as §1, §2, §3

[11] = system: FaDu (squamous cell carcinoma of the pharynx); test: MTT assay; type: cell-based; conditions: Homo sapiens, read-out: IC50, cytotoxicity
Experimental: as §1, §2, §3

[12] = system: AGS (human gastric adenocarcinoma); test: MTT assay; type: cell-based; conditions: read-out: IC50, cytotoxicity
Experimental: as §1, §2, §3

Structure (SMILES)	melting point	IC50 ([2]; 24h)	IC50 ([2]; 48 h)	IC50 ([3]; 24h)	IC50 ([3]; 48 h)	IC50 ([4]; 24h)	IC50 ([4]; 48h)	IC50 ([5]; A-375, 24h)	IC50 ([5]; A-375, 48 h)	IC50 at 24 h [6]	IC50 at 48 h [6]	IC50 ([7]; 24h)	IC50 ([7]; 48h)	IC50 ([8]; 24h)	IC50 ([8]; 48 h)	IC50 ([9]; 24h)	IC50 ([9]; 48h)	IC50 ([10]; 24h)	IC50 ([10]; 48h)	IC50 ([11]; 24h)	further results
Cc1cccc(C(=O)NC(=S)NNC(=O)c2ccc(O)c([N+](=O)[O-])c2)c1 [Compound 12, 4-(3-Methylbenzoyl)-1-(4-hydroxy-3-nitrobenzoyl)thiosemicarbazide]	190 to 192 °C																				solubility in culture media and buffers [1]: low solubility
O=C(NNC(=S)NC(=O)c1ccccc1Cl)c1ccc(O)c([N+](=O)[O-])c1 [Compound 7, 4-(2-Chlorobenzoyl)-1-(4-hydroxy-3-nitrobenzoyl)thiosemicarbazide]		42.4 µg/mL (≈ 107 µM)	24.3 µg/mL (≈ 61.6 µM)	47.4 µg/mL (≈ 120 µM)	7.18 µg/mL (≈ 18.2 µM)	> 100 µg/mL	24.8 µg/mL (≈ 62.9 µM)	> 100 µg/mL	13.9 µg/mL (≈ 35.2 µM)	67.2 µg/mL (≈ 170 µM)	32.7 µg/mL (≈ 82.8 µM)	> 100 µg/mL	69.4 µg/mL (≈ 176 µM)	> 100 µg/mL	24.7 µg/mL (≈ 62.5 µM)	> 100 µg/mL	> 100 µg/mL	11.4 µg/mL (≈ 29 µM)	10.7 µg/mL (≈ 27 µM)	33.5 µg/mL (≈ 84.9 µM)	IC50 ([11]; 48 h): 22.5 µg/mL (≈ 56.9 µM); IC50 ([12]; 24h): > 100 µg/mL; IC50 ([12]; 48 h): 18.8 µg/mL (≈ 47.5 µM)
O=C(Cc1cccc2ccccc12)NNC(=S)NC(=O)c1ccccc1 [Compound 9, 4-Benzoyl-1-[(naphth-1-yl)acetyl]thiosemicarbazide]	164 to 166 °C	32.2 µg/mL (≈ 88.6 µM)	34.5 µg/mL (≈ 94.9 µM)	> 100 µg/mL	5.23 µg/mL (≈ 14.4 µM)	> 100 µg/mL	16.4 µg/mL (≈ 45 µM)	> 100 µg/mL	8.14 µg/mL (≈ 22.4 µM)	67 µg/mL (≈ 184 µM)	23 µg/mL (≈ 63.4 µM)	> 100 µg/mL	> 100 µg/mL	> 100 µg/mL	19.8 µg/mL (≈ 54.5 µM)	> 100 µg/mL	> 100 µg/mL	> 100 µg/mL	17.4 µg/mL (≈ 47.8 µM)	28.2 µg/mL (≈ 77.5 µM)	IC50 ([11]; 48 h): 19.5 µg/mL (≈ 53.7 µM); IC50 ([12]; 24h): > 100 µg/mL; IC50 ([12]; 48 h): 19.7 µg/mL (≈ 54.1 µM)
O=C(Cc1cccc2ccccc12)NNC(=S)NC(=O)c1ccccc1Cl [Compound 8, 4-(2-Chlorobenzoyl)-1-[(naphth-1-yl)acetyl]thiosemicarbazide]	174 to 176 °C	> 100 µg/mL	29.5 µg/mL (≈ 74.1 µM)	> 100 µg/mL	14.8 µg/mL (≈ 37.1 µM)	> 100 µg/mL	12.7 µg/mL (≈ 32 µM)	> 100 µg/mL	9.45 µg/mL (≈ 23.8 µM)	> 100 µg/mL	23.4 µg/mL (≈ 58.9 µM)	> 100 µg/mL	17.2 µg/mL (≈ 43.3 µM)	> 100 µg/mL	41.1 µg/mL (≈ 103 µM)	> 100 µg/mL	> 100 µg/mL	97.2 µg/mL (≈ 244 µM)	11.8 µg/mL (≈ 29.7 µM)	> 100 µg/mL	IC50 ([11]; 48 h): 12.8 µg/mL (≈ 32.2 µM); IC50 ([12]; 24h): > 100 µg/mL; IC50 ([12]; 48 h): > 100 µg/mL
